Patent US20070161637A1, “Substituted pyridin-2-ylamine analogues” (Neurogen Corporation, priority 2003, published 2007)

What follows are compounds tested against T1, human capsaicin receptor (Homo sapiens, UniProt Q8NER1) (assay: Calcium mobilization assay, determination of antagonist activity (Example 6)). Conditions: concentration giving 50% decrease in the fluorescence response of cells expressing human capsaicin receptor exposed to capsaicin.
T1 construct: transfected with the pBK-CMV expression construct encoding the full length human capsaicin receptor; expressed in transfected cells; host or cells: HEK293, stably transfected clonal lines, plasmid pBK-CMV
T1 sequence (Q8NER1 whole entry): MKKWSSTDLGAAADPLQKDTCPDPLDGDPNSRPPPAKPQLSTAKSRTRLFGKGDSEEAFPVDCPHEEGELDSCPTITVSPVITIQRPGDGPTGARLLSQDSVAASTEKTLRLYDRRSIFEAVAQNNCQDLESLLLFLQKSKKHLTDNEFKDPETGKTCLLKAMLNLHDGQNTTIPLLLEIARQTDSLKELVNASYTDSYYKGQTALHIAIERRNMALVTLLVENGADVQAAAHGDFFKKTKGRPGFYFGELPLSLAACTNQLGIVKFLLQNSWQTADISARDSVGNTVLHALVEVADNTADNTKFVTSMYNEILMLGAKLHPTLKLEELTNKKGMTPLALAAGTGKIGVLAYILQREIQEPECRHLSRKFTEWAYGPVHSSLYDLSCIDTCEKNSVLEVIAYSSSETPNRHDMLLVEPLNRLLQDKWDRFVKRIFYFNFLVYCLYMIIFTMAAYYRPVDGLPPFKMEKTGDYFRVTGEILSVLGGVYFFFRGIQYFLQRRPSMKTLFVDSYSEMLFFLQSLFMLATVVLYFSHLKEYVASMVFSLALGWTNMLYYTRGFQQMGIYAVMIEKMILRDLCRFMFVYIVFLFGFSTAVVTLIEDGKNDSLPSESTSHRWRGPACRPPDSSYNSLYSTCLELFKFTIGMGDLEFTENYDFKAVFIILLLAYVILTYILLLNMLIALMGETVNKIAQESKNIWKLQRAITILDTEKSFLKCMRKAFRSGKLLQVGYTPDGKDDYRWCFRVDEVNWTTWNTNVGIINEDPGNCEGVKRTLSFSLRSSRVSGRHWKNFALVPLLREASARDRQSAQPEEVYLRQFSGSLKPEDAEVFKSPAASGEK
Format: cell-based
Protocol: A cDNA encoding full length human capsaicin receptor (SEQ ID NO:1, 2 or 3 of U.S. Pat. No. 6,482,611) was subcloned in the plasmid pBK-CMV (Stratagene, La Jolla, Calif.) for recombinant expression in mammalian cells.
Human embryonic kidney (HEK293) cells were transfected with the pBK-CMV expression construct encoding the full length human capsaicin receptor using standard methods. The transfected cells were selected for two weeks in media containing G418 (400 μg/ml) to obtain a pool of stably transfected cells. Independent clones were isolated from this pool by limiting dilution to obtain clonal stable cell lines for use in subsequent experiments.
Cells transfected with expression plasmids (as described in Example 4) and thereby expressing human capsaicin receptor are seeded and grown to 70-90% confluency in FALCON black-walled, clear-bottomed 96-well plates (#3904, BECTON-DICKINSON, Franklin Lakes, N.J.). The culture medium is emptied from the 96 well plates and FLUO-3 AM calcium sensitive dye (Molecular Probes, Eugene, Oreg.) is added to each well (dye solution: 1 mg FLUO-3 AM, 440 μL DMSO and 440 μl 20% pluronic acid in DMSO, diluted 1:250 in Krebs-Ringer HEPES (KRH) buffer (25 mM HEPES, 5 mM KCl, 0.96 mM NaH2PO4, 1 mM MgSO4, 2 mM CaCl2, 5 mM glucose, 1 mM probenecid, pH 7.4), 50 μl diluted solution per well). Plates are covered with aluminum foil and incubated at 37° C. for 1-2 hours in an environment containing 5% CO2. After the incubation, the dye is emptied from the plates, and the cells are washed once with KRH buffer, and resuspended in KRH buffer.
To measure the ability of a test compound to agonize or antagonize a calcium mobilization response in cells expressing capsaicin receptors to capsaicin or other vanilloid agonist, the EC50 of the agonist capsaicin is first determined. An additional 20 μl of KRH buffer and 1 μl DMSO is added to each well of cells, prepared as described above. 100 μl capsaicin in KRH buffer is automatically transferred by the FLIPR instrument to each well. Capsaicin-induced calcium mobilization is monitored using either FLUOROSKAN ASCENT (Labsystems; Franklin, Mass.) or FLIPR (fluorometric imaging plate reader system; Molecular Devices, Sunnyvale, Calif.) instruments. Data obtained between 30 and 60 seconds after agonist application are used to generate an 8-point concentration response curve, with final capsaicin concentrations of 1 nM to 3 μM. […] software (Synergy Software, Reading, Pa.) is used to fit the data to the equation: y=a*(1/(1+(b/x)^c)) to determine the 50% excitatory concentration (EC50) for the response. In this equation, y is the maximum fluorescence signal, x is the concentration of the agonist or antagonist (in this case, capsaicin), a is the Emax, b corresponds to the EC50 value and c is the Hill coefficient. Determination Agonist Activity
Test compounds are dissolved in DMSO, diluted in 20 μl KRH buffer so that the final concentration of test compounds in the assay well is between 1 μM and 5 μM, and added to cells prepared as described above. The 96 well plates containing prepared cells and test compounds are incubated in the dark, at room temperature for 0.5 to 6 hours. It is important that the incubation not continue beyond 6 hours. Just prior to determining the fluorescence response, 100 μl capsaicin in KRH buffer at twice the EC50 concentration determined as described above is automatically added by the FLIPR instrument to each well of the 96 well plate for a final sample volume of 200 μl and a final capsaicin concentration equal to the EC50. The final concentration of test compounds in the assay wells is between 1 μM and 5 μM.

IC50, ≤ 1000 nM:
CN1CCN(c2nc(Nc3ccc(C(C)(C)C)cc3)nc(OCc3ccccc3C(F)(F)F)n2)CC1 [Compound 1, (4-tert-Butyl-phenyl)-[4-(4-methyl-piperazin-1-yl)-6-(2-trifluoromethyl-benzyloxy)-[1,3,5]triazine-2-yl]-amine]
COc1ccccc1COc1nc(Cl)nc(Nc2ccc(C(C)(C)C)cc2)n1 [Compound 3, (4-tert-Butyl-phenyl)-[4-chloro-6-(2-methoxy-benzyloxy)-[1,3,5]triazin-2-yl]-amine]
CC(C)(C)c1ccc(Nc2nc(Cl)nc(OCc3ccccc3C(F)(F)F)n2)cc1 [Compound 4, (4-tert-Butyl-phenyl)-[4-chloro-6-(2-trifluoromethyl-benzyloxy)-[1,3,5]triazin-2-yl]-amine]
CC(C)(C)c1ccc(Nc2nc(Cl)nc(N3CCc4ccccc4C3)n2)cc1 [Compound 5, (4-tert-Butyl-phenyl)-[4-chloro-6-(3,4-dihydro-1H-isoquinolin-2-yl)-[1,3,5]triazin-2-yl]-amine]
COc1cc2c(cc1OC)CN(c1nc(Cl)nc(Nc3ccc(C(C)(C)C)cc3)n1)CC2 [Compound 6, (4-tert-Butyl-phenyl)-[4-chloro-6-(6,7-dimethoxy-3,4-dihydro-1H-isoquinolin-2-yl)-[1,3,5]triazin-2-yl]-amine]
COc1cc2c(cc1OC)CN(c1nc(Cl)nc(Nc3ccc(C(C)(C)C)cc3)n1)C(C)C2 (centres unmarked) [Compound 7, (4-tert-Butyl-phenyl)-[4-chloro-6-(6,7-dimethoxy-3-methyl-3,4-dihydro-1H-isoquinolin-2-yl)-[1,3,5]triazin-2-yl]-amine]
CC(C)(C)c1ccc(Nc2cc(OCc3ccccc3C(F)(F)F)ncn2)cc1 [Compound 8, (4-tert-Butyl-phenyl)-[6-(2-trifluoromethyl-benzyloxy)-pyrimidin-4-yl]-amine]
FC(F)(F)c1ccc(Nc2nc(OCc3ccccc3C(F)(F)F)nc(-c3ccccc3Cl)n2)cc1 [Compound 9, [4-(2-Chloro-phenyl)-6-(2-trifluoromethyl-benzyloxy)-[1,3,5]triazin-2-yl]-(4-trifluoromethyl-phenyl)-amine]
FC(F)(F)c1ccc(Nc2nc(OCc3ccccc3C(F)(F)F)nc(-c3ccccc3C(F)(F)F)n2)cc1 [Compound 10, [4-(2-Trifluoromethyl-benzyloxy)-6-(2-trifluoromethyl-phenyl)-[1,3,5]triazin-2-yl]-(4-trifluoromethyl-phenyl)-amine]
CC(C)(C)c1ccc(Nc2nc(OCc3ccccc3Cl)nc(OCc3ccccc3Cl)n2)cc1 [Compound 11, [4,6-Bis-(2-chloro-benzyloxy)-[1,3,5]triazin-2-yl]-(4-tert-butyl-phenyl)-amine]
CC(C)(C)c1ccc(Nc2nc(OCc3ccccc3F)nc(OCc3ccccc3F)n2)cc1 [Compound 12, [4,6-Bis-(2-fluoro-benzyloxy)-[1,3,5]triazin-2-yl]-(4-tert-butyl-phenyl)-amine]
COc1ccccc1COc1nc(Nc2ccc(C(C)(C)C)cc2)nc(OCc2ccccc2OC)n1 [Compound 13, [4,6-Bis-(2-methoxy-benzyloxy)-[1,3,5]triazin-2-yl]-(4-tert-butyl-phenyl)-amine]
CC(C)(C)c1ccc(Nc2nc(OCc3ccccc3C(F)(F)F)nc(OCc3ccccc3C(F)(F)F)n2)cc1 [Compound 14, [4,6-Bis-(2-trifluoromethyl-benzyloxy)-[1,3,5]triazin-2-yl]-(4-tert-butyl-phenyl)-amine]
FC(F)(F)c1ccc(Nc2nc(OCc3ccccc3C(F)(F)F)nc(OCc3ccccc3C(F)(F)F)n2)cc1 [Compound 15, [4,6-Bis-(2-trifluoromethyl-benzyloxy)-[1,3,5]triazin-2-yl]-(4-trifluoromethyl-phenyl)-amine]
CC(C)(C)c1ccc(Nc2nc(OCc3ncccc3Cl)nc(OCc3ncccc3Cl)n2)cc1 [Compound 16, [4,6-Bis-(3-chloro-pyridin-2-ylmethoxy)-[1,3,5]triazin-2-yl]-(4-tert-butyl-phenyl)-amine]
CC(C)(C)c1ccc(Nc2nc(OCc3ccccn3)nc(OCc3ccccn3)n2)cc1 [Compound 17, [4,6-Bis-(pyridin-2-ylmethoxy)-[1,3,5]triazin-2-yl]-(4-tert-butyl-phenyl)-amine]
FC(F)(F)c1ccc(Nc2nc(Cl)nc(OCc3ccccc3C(F)(F)F)n2)cc1 [Compound 18, [4-Chloro-6-(2-trifluoromethyl-benzyloxy)-[1,3,5]triazin-2-yl]-(4-trifluoromethyl-phenyl)-amine]
FC(F)(F)c1ccc(Nc2nc(OCc3ccccc3C(F)(F)F)nc(OC3CCCC3)n2)cc1 [Compound 19, [4-Cyclopentyloxy-6-(2-trifluoromethyl-benzyloxy)-[1,3,5]triazin-2-yl]-(4-trifluoromethyl-phenyl)-amine]
CCOc1nc(Nc2ccc(C(F)(F)F)cc2)nc(OCc2ccccc2C(F)(F)F)n1 [Compound 20, [4-Ethoxy-6-(2-trifluoromethyl-benzyloxy)-[1,3,5]triazin-2-yl]-(4-trifluoromethyl-phenyl)-amine]
FC(F)(F)c1ccc(Nc2nc(OCc3ccccc3C(F)(F)F)nc(N3CCOCC3)n2)cc1 [Compound 21, [4-Morpholin-4-yl-6-(2-trifluoromethyl-benzyloxy)-[1,3,5]triazin-2-yl]-(4-trifluoromethyl-phenyl)-amine]
FC(F)(F)c1ccc(Nc2nc(OCc3ccccc3C(F)(F)F)nc(-c3ccccc3)n2)cc1 [Compound 22, [4-Phenyl-6-(2-trifluoromethyl-benzyloxy)-[1,3,5]triazin-2-yl]-(4-trifluoromethyl-phenyl)-amine]
FC(F)(F)c1ccc(Nc2nc(OCc3ccccc3C(F)(F)F)nc(-c3cccnc3)n2)cc1 [Compound 23, [4-Pyridin-3-yl-6-(2-trifluoromethyl-benzyloxy)-[1,3,5]triazin-2-yl]-(4-trifluoromethyl-phenyl)-amine]
CC(C)(O)CCNc1nc(Nc2ccc(C(F)(F)F)cc2)nc(OCc2ccccc2C(F)(F)F)n1 [Compound 24, 2-Methyl-4-[4-(2-trifluoromethyl-benzyloxy)-6-(4-trifluoromethyl-phenylamino)-[1,3,5]triazin-2-ylamino]-butan-2-ol]
Oc1nc(Nc2ccc(C(F)(F)F)cc2)nc(OCc2ccccc2C(F)(F)F)n1 [Compound 25, 4-(2-Trifluoromethyl-benzyloxy)-6-(4-trifluoromethyl-phenylamino)-[1,3,5]triazin-2-ol]
FC(F)(F)c1ccc(Nc2nc(NCCN3CCOCC3)nc(OCc3ccccc3C(F)(F)F)n2)cc1 [Compound 28, N-(2-Morpholin-4-yl-ethyl)-6-(2-trifluoromethyl-benzyloxy)-N′-(4-trifluoromethyl-phenyl)-[1,3,5]triazine-2,4-diamine]
CC(C)CCNc1nc(Nc2ccc(C(F)(F)F)cc2)nc(OCc2ccccc2C(F)(F)F)n1 [Compound 29, N-(3-Methyl-butyl)-6-(2-trifluoromethyl-benzyloxy)-N′-(4-trifluoromethyl-phenyl)-[1,3,5]triazine-2,4-diamine]
